Measured values from patent publication US9187472B2 (AbbVie Inc., priority 2012, dated 2015).

Experiments:
[1] = biological target: NAMPT (human, recombinant, C-terminally His-tagged) (Homo sapiens, UniProt P43490); assay: Time-Resolved Fluorescence Resonance Energy Transfer (TR-FRET) Binding Assay of NAMPT; settings: without substrates; 6.8 nM NAMPT, 200 nM probe, 3 hours equilibration
Summary of the method: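 11-pt half-log compound series; final 6.8 nM NAMPT, 200 nM OG488 nicotinamide-competitive probe, 1 nM Tb-anti-His Ab, 2% DMSO, HEPES pH 7.5/NaCl/MgCl2/DTT/glycerol buffer. 3 h RT equilibration. Em520/Em495 ratio (Ex 337 nm), control-normalized, 4-parameter fit → IC50.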

NAMPT = NAMPT (Homo sapiens, UniProt P43490); assay: TR-FRET Binding Assay of NAMPT with PRPP; settings: with 200 μM PRPP and 2.5 mM ATP; 2 nM NAMPT, 2 nM probe, 16 hours equilibration
Summary of the method: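 TR-FRET probe-displacement binding with 2 nM NAMPT, 2 nM probe and 1 nM Tb-anti-His antibody, run in the presence of 200 μM PRPP and 2.5 mM ATP at 2% DMSO. Equilibrated 16 hours before reading so test compounds could undergo enzymatic modification.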

PC3 cells = assay: NAMPT Cell Proliferation Assay; format: cell-based; settings: Homo sapiens, PC-3, 120 h, 5 days incubation, cell viability by Cell Titer Glo
Summary of the method: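 PC3 cells were plated at 500 cells/well in RPMI with 10% heat-inactivated FBS, left to attach overnight, then given compounds in 10-fold dilutions from 10 μM to 1×10^−5 μM. After 5 days at 37° C and 5% CO2, viability was read by luminescence and IC50s came from sigmoidal fits of percent inhibition.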

NAMPT, sequence (P43490 whole entry): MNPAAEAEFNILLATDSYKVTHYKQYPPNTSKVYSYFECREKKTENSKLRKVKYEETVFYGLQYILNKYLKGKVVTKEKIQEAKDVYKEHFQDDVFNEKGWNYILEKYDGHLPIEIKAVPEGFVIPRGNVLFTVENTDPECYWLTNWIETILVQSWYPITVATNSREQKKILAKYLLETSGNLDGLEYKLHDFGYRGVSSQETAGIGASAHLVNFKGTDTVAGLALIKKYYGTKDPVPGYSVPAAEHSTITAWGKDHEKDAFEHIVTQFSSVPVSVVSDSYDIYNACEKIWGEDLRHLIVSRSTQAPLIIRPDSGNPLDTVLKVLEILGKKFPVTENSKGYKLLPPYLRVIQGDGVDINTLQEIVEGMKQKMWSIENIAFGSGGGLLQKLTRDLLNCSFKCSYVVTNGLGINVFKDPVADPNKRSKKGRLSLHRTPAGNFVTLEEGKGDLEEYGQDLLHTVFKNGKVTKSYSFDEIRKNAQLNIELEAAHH
NAMPT (human, recombinant, C-terminally His-tagged), sequence (P43490 whole entry): as above

IC50 [1] | IC50 (NAMPT) | IC50 (PC3 cells) | SMILES
1730 nM | 2.52 nM | 104 nM | CC(C)OCC(=O)N1CCC(Oc2ccc(C(=O)NCc3ccc4nccn4c3)cc2)CC1 [Example 167, N-(imidazo[1,2-a]pyridin-6-ylmethyl)-4-({1-[(propan-2-yloxy)acetyl]piperidin-4-yl}oxy)benzamide]
1110 nM | 0.951 nM | 208 nM | CCCC(=O)N1CCC(Oc2ccc(C(=O)NCc3ccc4nccn4c3)cc2)CC1 [Example 168, 4-[(1-butanoylpiperidin-4-yl)oxy]-N-(imidazo[1,2-a]pyridin-6-ylmethyl)benzamide]
375 nM | 4.25 nM | 26.9 nM | COCC(C)C(=O)N1CCC(Oc2ccc(C(=O)NCc3ccc4nccn4c3)cc2)CC1 (stereo not drawn) [Example 169, N-(imidazo[1,2-a]pyridin-6-ylmethyl)-4-{[1-(3-methoxy-2-methylpropanoyl)piperidin-4-yl]oxy}benzamide]
3360 nM | 2.25 nM | 604 nM | O=C(NCc1ccc2nccn2c1)c1ccc(OC2CCN(C(=O)CC(F)(F)F)CC2)cc1 [Example 170, N-(imidazo[1,2-a]pyridin-6-ylmethyl)-4-{[1-(3,3,3-trifluoropropanoyl)piperidin-4-yl]oxy}benzamide]
2170 nM | 2.51 nM | 44.7 nM | O=C(NCc1ccc2nccn2c1)c1ccc(OC2CCN(C(=O)CC3CCOCC3)CC2)cc1 [Example 171, N-(imidazo[1,2-a]pyridin-6-ylmethyl)-4-{[1-(tetrahydro-2H-pyran-4-ylacetyl)piperidin-4-yl]oxy}benzamide]
2210 nM | 3.55 nM | 223 nM | O=C(NCc1ccc2nccn2c1)c1ccc(OC2CCN(C(=O)CC3CC3)CC2)cc1 [Example 172, 4-{[1-(cyclopropylacetyl)piperidin-4-yl]oxy}-N-(imidazo[1,2-a]pyridin-6-ylmethyl)benzamide]
1510 nM | 1.24 nM | 50.1 nM | O=C(NCc1ccc2nccn2c1)c1ccc(OC2CCN(C(=O)CC3CCCO3)CC2)cc1 (stereo not drawn) [Example 173, N-(imidazo[1,2-a]pyridin-6-ylmethyl)-4-{[1-(tetrahydrofuran-2-ylacetyl)piperidin-4-yl]oxy}benzamide]
28.3 nM | 0.169 nM | 1.12 nM | CC(C)Cn1cc(-c2ccc(C(=O)NCc3ccn4ccnc4c3)s2)cn1 [Example 174, N-(imidazo[1,2-a]pyridin-7-ylmethyl)-5-[1-(2-methylpropyl)-1H-pyrazol-4-yl]thiophene-2-carboxamide]
697 nM | 0.9 nM | 313 nM | CC(C)C(=O)n1cc(-c2ccc(C(=O)NCc3ccc4nccn4c3)s2)cn1 [Example 175, N-(imidazo[1,2-a]pyridin-6-ylmethyl)-5-[1-(2-methylpropanoyl)-1H-pyrazol-4-yl]thiophene-2-carboxamide]
60.6 nM | 0.414 nM | 1.81 nM | CC(C)(O)Cn1cc(-c2ccc(C(=O)NCc3ccc4nccn4c3)s2)cn1 [Example 176, 5-[1-(2-hydroxy-2-methylpropyl)-1H-pyrazol-4-yl]-N-(imidazo[1,2-a]pyridin-6-ylmethyl)thiophene-2-carboxamide]
20.1 nM | 0.169 nM | 1.69 nM | CC1(Cn2cc(-c3ccc(C(=O)NCc4ccc5nccn5c4)s3)cn2)COC1 [Example 177, N-(imidazo[1,2-a]pyridin-6-ylmethyl)-5-{1-[(3-methyloxetan-3-yl)methyl]-1H-pyrazol-4-yl}thiophene-2-carboxamide]
14.3 nM | 0.169 nM | 1.85 nM | O=C(NCc1ccc2nccn2c1)c1ccc(-c2cnn(CC3CCC3)c2)s1 [Example 178, 5-[1-(cyclobutylmethyl)-1H-pyrazol-4-yl]-N-(imidazo[1,2-a]pyridin-6-ylmethyl)thiophene-2-carboxamide]
58.1 nM | 0.445 nM | 2.18 nM | O=C(NCc1ccc2nccn2c1)c1ccc(-c2cnn(CC3CCCCC3)c2)s1 [Example 179, 5-[1-(cyclohexylmethyl)-1H-pyrazol-4-yl]-N-(imidazo[1,2-a]pyridin-6-ylmethyl)thiophene-2-carboxamide]
584 nM | 0.266 nM | 9.12 nM | CC[C@@H](O)Cn1cc(-c2ccc(C(=O)NCc3ccc4nccn4c3)s2)cn1 [Example 180, 5-{1-[(2R)-2-hydroxybutyl]-1H-pyrazol-4-yl}-N-(imidazo[1,2-a]pyridin-6-ylmethyl)thiophene-2-carboxamide]
349 nM | 0.283 nM | 7.75 nM | CC(C)[C@@H]1COC(=O)N1c1ncc(C(=O)NCc2ccn3ccnc3c2)s1 [Example 181, N-(imidazo[1,2-a]pyridin-7-ylmethyl)-2-[(4R)-2-oxo-4-(propan-2-yl)-1,3-oxazolidin-3-yl]-1,3-thiazole-5-carboxamide]
139 nM | 0.4 nM | 1.37 nM | CC(C)(O)Cn1cc(-c2ccc(C(=O)NCc3ccn4ccnc4c3)s2)cn1 [Example 182, 5-[1-(2-hydroxy-2-methylpropyl)-1H-pyrazol-4-yl]-N-(imidazo[1,2-a]pyridin-7-ylmethyl)thiophene-2-carboxamide]
1050 nM | 1.8 nM | 63 nM | Cn1cc(CC(=O)N(CC2CCCO2)c2ncc(C(=O)NCc3ccc4nccn4c3)s2)cn1 (stereo not drawn) [Example 183, N-(imidazo[1,2-a]pyridin-6-ylmethyl)-2-{[(1-methyl-1H-pyrazol-4-yl)acetyl](tetrahydrofuran-2-ylmethyl)amino}-1,3-thiazole-5-carboxamide]
4340 nM | 2.54 nM | 65.1 nM | Cc1nn(C)cc1CC(=O)N(CC1CCCO1)c1ncc(C(=O)NCc2ccc3nccn3c2)s1 (stereo not drawn) [Example 184, 2-{[(1,3-dimethyl-1H-pyrazol-4-yl)acetyl](tetrahydrofuran-2-ylmethyl)amino}-N-(imidazo[1,2-a]pyridin-6-ylmethyl)-1,3-thiazole-5-carboxamide]
> 10000 nM | 1.86 nM | 5050 nM | CC(C)[C@H]1COC(=O)N1c1ncc(C(=O)NCc2ccn3ccnc3c2)s1 [Example 185, N-(imidazo[1,2-a]pyridin-7-ylmethyl)-2-[(4S)-2-oxo-4-(propan-2-yl)-1,3-oxazolidin-3-yl]-1,3-thiazole-5-carboxamide]
65.7 nM | 0.347 nM | 2.36 nM | O=C(NCc1ccc2nccn2c1)c1ccc(-c2cnn(CC3CCCCO3)c2)s1 (stereo not drawn) [Example 186, N-(imidazo[1,2-a]pyridin-6-ylmethyl)-5-[1-(tetrahydro-2H-pyran-2-ylmethyl)-1H-pyrazol-4-yl]thiophene-2-carboxamide]
549 nM | 0.172 nM | 34.1 nM | O=C(NCc1ccn2ccnc2c1)c1cnc(N2C(=O)OC[C@H]2COCc2ccccc2)s1 [Example 187, 2-{(4R)-4-[(benzyloxy)methyl]-2-oxo-1,3-oxazolidin-3-yl}-N-(imidazo[1,2-a]pyridin-7-ylmethyl)-1,3-thiazole-5-carboxamide]
> 10000 nM | 5.09 nM | 6290 nM | O=C(NCc1ccn2ccnc2c1)c1cnc(N2C(=O)OC[C@@H]2COCc2ccccc2)s1 [Example 188, 2-{(4S)-4-[(benzyloxy)methyl]-2-oxo-1,3-oxazolidin-3-yl}-N-(imidazo[1,2-a]pyridin-7-ylmethyl)-1,3-thiazole-5-carboxamide]
192 nM | 11.1 nM | 29.3 nM | Cn1cccc1CCC(=O)N(CC1CCCO1)c1ncc(C(=O)NCc2ccc3nccn3c2)s1 (stereo not drawn) [Example 189, N-(imidazo[1,2-a]pyridin-6-ylmethyl)-2-{[3-(1-methyl-1H-pyrrol-2-yl)propanoyl](tetrahydrofuran-2-ylmethyl)amino}-1,3-thiazole-5-carboxamide]
400 nM | 4.57 nM | 14.9 nM | Cc1cc(CC(=O)N(CC2CCCO2)c2ncc(C(=O)NCc3ccc4nccn4c3)s2)nn1C (stereo not drawn) [Example 190, 2-{[(1,5-dimethyl-1H-pyrazol-3-yl)acetyl](tetrahydrofuran-2-ylmethyl)amino}-N-(imidazo[1,2-a]pyridin-6-ylmethyl)-1,3-thiazole-5-carboxamide]
821 nM | 6.09 nM | 14.3 nM | O=C(NCc1ccc2nccn2c1)c1cnc(N(CC2CCCO2)C(=O)Cc2cscn2)s1 (stereo not drawn) [Example 191, N-(imidazo[1,2-a]pyridin-6-ylmethyl)-2-[(tetrahydrofuran-2-ylmethyl)(1,3-thiazol-4-ylacetyl)amino]-1,3-thiazole-5-carboxamide]
238 nM | 0.242 nM | 1.85 nM | O=C(NCc1ccn2ccnc2c1)c1cnc(N(C[C@H]2CCCO2)C(=O)Cc2ccon2)s1 [Example 192, N-(imidazo[1,2-a]pyridin-7-ylmethyl)-2-{(1,2-oxazol-3-ylacetyl)[(2R)-tetrahydrofuran-2-ylmethyl]amino}-1,3-thiazole-5-carboxamide]
